The NIST ThermoML archive (doi:10.1021/je101192x)
Numbers after ± are expanded uncertainties.

Assay: wn = mass fraction of the nth substance listed
Details: for viscosity / mass density: 101 kPa, Liquid; for viscosity: Capillary tube (Ostwald / Ubbelohde) method; for mass density: Pycnometric method; for surface tension liquid-gas: Pendant drop shape

CN(CCO)CCO [N-methyldiethanolamine] + O
Details	mass density, 288.15 K [kg/m3]	mass density, 313.15 K [kg/m3]	surface tension liquid-gas, 313.15 K [mN/m]	viscosity, 288.15 K [mPa·s]	viscosity, 313.15 K [mPa·s]
w1 = 0.1	1007.1 ± 1	1001.1 ± 1	58.71 ± 2.1	1.711 ± 0.021	0.905 ± 0.012
w1 = 0.2	1017.5 ± 1.1	1008.1 ± 1.1	54.68 ± 1.9	2.631 ± 0.032	1.312 ± 0.018
